Test results reported in US4667020A, “Aromatic disazo dyes and liquid-crystalline materials containing these dyes” (BASF Aktiengesellschaft, priority 1984, dated 1987).

Columns and labels:
[1] = solubility L in liquid crystal mixture; type: physicochemical; conditions: 1 week stirring
Experimental: (§1) The degree of order S measured at room temperature, the solubility L, likewise determined at room temperature, and the Merck liquid crystal mixtures used are summarized in Table 1 for the Examples 1, 2 and 4-12.
The solubility was determined as follows:
50 mg of the particular dye were stirred in 1 ml of liquid-crystalline mixture for 1 week at room temperature, the saturated solution was separated from the residue by centrifuging, and the solubility was determined by comparison of the extinctions.

[2] = degree of order S in liquid crystal mixture; type: physicochemical
Experimental: as §1
The degree of order S was determined in commercial measuring cells with a homogeneous edge orientation, using the known equation [formula] (polyimide). The dichroic ratio CR was determined by measuring the extinctions E.parallel. (measurement with light polarized parallel to the preferred direction of the nematic phase) and E.perp. (measurement with light polarized at right angles to the preferred direction of the nematic phase) and using the relationship [formula] the dye concentration being chosen so that E.parallel. was from 1 to 2. The measurements were carried out on a Beckmann Acta CIII spectrophotometer.

[3] = liquid crystal mixture ZLI 1840
[4] = liquid crystal mixture ZLI 1957/5
[5] = liquid crystal mixture ZLI 2452

Compound	Solubility L (at room temp.) [1, 3]	Solubility L (at room temp.) [1, 4]	Degree of order S (at room temp.) [2, 3]	Degree of order S (at room temp.) [2, 4]	Solubility L (at room temp.) [1, 5]	Degree of order S (at room temp.) [2, 5]
CCCCc1nnc(-c2ccc(N=Nc3cc(C)c(N=Nc4ccc(OCc5ccc(C6CCC(CC)CC6)cc5)cc4C)cc3C)cc2)o1 (stereo not drawn) [Example 1]	1.6%	1.3%	0.76	0.76	–	–
CCCCSc1nnc(-c2ccc(N=Nc3cc(C)c(N=Nc4ccc(N(C)CCCC)cc4)cc3C)cc2)s1 [Example 2]	–	1.1%	–	0.74	–	–
Cc1cc(N=Nc2ccc(N(C)C)cc2)c(C)cc1N=Nc1ccc(-c2nnc(SCc3ccccc3)s2)cc1 [Example 4]	< 0.2%	–	0.78	–	–	–
CCCCc1nnc(-c2ccc(N=Nc3cc(C)c(N=Nc4ccc(N(C)CCCC)cc4)cc3C)cc2)o1 [Example 5]	1.4%	1.3%	0.73	0.73	–	–
CCCCC(CC)c1nnc(-c2ccc(N=Nc3cc(C)c(N=Nc4ccc(N(C)CCCC)cc4)cc3C)cc2)o1 (stereo not drawn) [Example 6]	–	> 5%	–	0.68	–	–
CCOC(=O)c1sc(-c2ccc(N=Nc3ccc(N=Nc4ccc(N(C)C)cc4)c4ccccc34)cc2)nc1C [Example 7]	1.4%	–	0.74	–	–	–
CCCCSc1nnc(-c2ccc(N=Nc3ccc(N=Nc4ccc(N(C)C)cc4)c4ccccc34)cc2)s1 [Example 8]	1.3%	0.5%	0.76	0.78	–	–
CCCCSc1nnc(-c2ccc(N=Nc3ccc(N=Nc4ccc(N(C)CCCC)cc4)c4ccccc34)cc2)s1 [Example 9]	0.6%	0.3%	0.79	0.77	–	–
CCCCc1nnc(-c2ccc(N=Nc3ccc(N=Nc4ccc(N(C)CCCC)cc4)c4ccccc34)cc2)o1 [Example 10]	–	1.2%	–	0.74	–	–
CCCCC(CC)c1nnc(-c2ccc(N=Nc3ccc(N=Nc4ccc(N(C)CCCC)cc4)c4ccccc34)cc2)o1 (stereo not drawn) [Example 11]	–	> 5%	–	0.74	–	–
CCCCC(CC)c1nnc(-c2ccc(N=Nc3ccc(N=Nc4ccc(NCC)c5ccccc45)c4ccccc34)cc2)o1 (stereo not drawn) [Example 12]	–	0.8%	–	0.71	–	–
CCCCCCCCSc1nnc(-c2ccc(N=Nc3ccc(N=Nc4ccc(N(C)CCCC)cc4)c4ccccc34)cc2)s1 [Example 14]	–	0.7%	–	0.77	–	–
CCCCC(CC)CSc1nnc(-c2ccc(N=Nc3ccc(N=Nc4ccc(N(C)CCCC)cc4)c4ccccc34)cc2)s1 (stereo not drawn) [Example 15]	–	–	–	–	> 5%	0.8
CCCCCCCC(C)Sc1nnc(-c2ccc(N=Nc3ccc(N=Nc4ccc(N(C)CCCC)cc4)c4ccccc34)cc2)s1 (stereo not drawn) [Example 16]	–	–	–	–	> 5%	0.81
CCCCC1CCC(c2ccc(COc3ccc(N=Nc4ccc(N=Nc5ccc(-c6nnc(SCC(CC)CCCC)s6)cc5)c5ccccc45)c(C)c3)cc2)CC1 (stereo not drawn) [Example 18]	–	–	–	–	3.1%	0.82
CCCCCCCC(C)Sc1nnc(-c2ccc(N=Nc3ccc(N=Nc4ccc(OCc5ccc(C6CCC(CCCC)CC6)cc5)cc4C)c4ccccc34)cc2)s1 (stereo not drawn) [Example 19]	–	> 5%	–	0.77	> 5%	0.84
